Data on five compounds can be found in ChEMBL document CHEMBL1135689, “Anthranilic acid amides: a novel class of antiangiogenic VEGF receptor kinase inhibitors” (J Med Chem, 2002).

SMILES strings stand for the structures. Where “and” joins values, the source holds several entries; their conditions need not be identical. Equal entries are not always repeated.

Assay [1] has as its system B16. The assay can be described thus: Mean % inhibition of lymph node metastasis in B16 mouse administration. In kind it is functional.
The nature of assay [2]: Mean % inhibition of induced angiogenesis by Vascular endothelial growth factor (VEGF) at a peroral dose of 50 mg/kg in mice. As to conditions: Mus musculus, route oral. It counts as functional.
Assay [3] relates to B16. The assay can be described thus: Mean % inhibition of primary tumor growth in B16 mouse administration. In kind it is functional.
Assay [4] relates to B16. The assay is described as follows: Mean % inhibition of lymph node metastasis in B16 mouse administration. In kind it is functional.
The target in assay [5] is Insulin-like growth factor 1 receptor (Homo sapiens, UniProt P08069). The assay is described as follows: In vitro inhibition of Insulin-like growth factor I receptor expressed in baculovirus.
Sequence of Insulin-like growth factor 1 receptor (P08069 31-736 limits assumed): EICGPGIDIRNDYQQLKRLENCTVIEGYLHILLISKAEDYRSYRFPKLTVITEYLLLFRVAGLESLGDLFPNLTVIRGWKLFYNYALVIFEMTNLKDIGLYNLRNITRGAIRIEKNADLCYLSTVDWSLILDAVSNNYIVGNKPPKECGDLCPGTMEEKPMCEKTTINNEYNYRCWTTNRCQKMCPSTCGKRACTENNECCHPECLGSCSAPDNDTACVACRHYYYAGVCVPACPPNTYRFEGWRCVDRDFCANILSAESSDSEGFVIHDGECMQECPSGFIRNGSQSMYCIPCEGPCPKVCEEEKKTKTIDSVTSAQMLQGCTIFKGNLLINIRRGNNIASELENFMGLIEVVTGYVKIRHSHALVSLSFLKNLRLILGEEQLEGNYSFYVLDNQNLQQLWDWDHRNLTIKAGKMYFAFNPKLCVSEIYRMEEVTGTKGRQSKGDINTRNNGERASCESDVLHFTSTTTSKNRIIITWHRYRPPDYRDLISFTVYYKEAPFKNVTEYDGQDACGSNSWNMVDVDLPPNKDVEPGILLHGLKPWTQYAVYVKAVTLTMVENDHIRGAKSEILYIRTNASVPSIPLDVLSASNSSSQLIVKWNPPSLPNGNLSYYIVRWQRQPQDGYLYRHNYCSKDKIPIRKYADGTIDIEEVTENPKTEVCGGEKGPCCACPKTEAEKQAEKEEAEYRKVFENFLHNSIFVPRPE
Sequence of Insulin-like growth factor 1 receptor (P08069 741-1367 limits assumed): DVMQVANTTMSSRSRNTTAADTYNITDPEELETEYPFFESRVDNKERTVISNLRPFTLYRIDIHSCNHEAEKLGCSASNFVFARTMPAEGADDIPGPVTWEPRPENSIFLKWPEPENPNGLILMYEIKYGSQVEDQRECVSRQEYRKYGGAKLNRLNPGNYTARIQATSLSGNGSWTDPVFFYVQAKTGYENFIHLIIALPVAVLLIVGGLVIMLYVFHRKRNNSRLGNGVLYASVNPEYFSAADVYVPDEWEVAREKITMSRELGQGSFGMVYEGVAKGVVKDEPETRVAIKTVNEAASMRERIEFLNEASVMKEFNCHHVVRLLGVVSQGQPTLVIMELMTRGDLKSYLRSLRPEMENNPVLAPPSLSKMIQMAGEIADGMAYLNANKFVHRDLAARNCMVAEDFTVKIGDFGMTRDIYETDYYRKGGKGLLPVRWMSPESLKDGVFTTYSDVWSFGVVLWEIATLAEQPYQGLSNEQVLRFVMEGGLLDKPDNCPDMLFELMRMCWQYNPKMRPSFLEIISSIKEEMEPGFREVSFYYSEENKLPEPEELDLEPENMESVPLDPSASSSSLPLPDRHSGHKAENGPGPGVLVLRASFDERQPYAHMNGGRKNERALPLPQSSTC
Assay [6] deals with Fibroblast growth factor receptor 1 (Mus musculus) (UniProt P16092). The assay can be described thus: Mean % inhibition of induced angiogenesis by Heparin-binding growth factor 2 after intraperitoneal dose of 100 mg/kg in mice. In kind it is functional, organism-based. The arrangement: dose 100 mg/kg.
In assay [7] the target is Angiopoietin-1 receptor (Homo sapiens, UniProt Q02763). The assay is described as follows: In vitro inhibition of Tyrosine protein kinase receptor TIE-2 (Tek) expressed in baculovirus.
Sequence of Angiopoietin-1 receptor (Q02763 whole entry): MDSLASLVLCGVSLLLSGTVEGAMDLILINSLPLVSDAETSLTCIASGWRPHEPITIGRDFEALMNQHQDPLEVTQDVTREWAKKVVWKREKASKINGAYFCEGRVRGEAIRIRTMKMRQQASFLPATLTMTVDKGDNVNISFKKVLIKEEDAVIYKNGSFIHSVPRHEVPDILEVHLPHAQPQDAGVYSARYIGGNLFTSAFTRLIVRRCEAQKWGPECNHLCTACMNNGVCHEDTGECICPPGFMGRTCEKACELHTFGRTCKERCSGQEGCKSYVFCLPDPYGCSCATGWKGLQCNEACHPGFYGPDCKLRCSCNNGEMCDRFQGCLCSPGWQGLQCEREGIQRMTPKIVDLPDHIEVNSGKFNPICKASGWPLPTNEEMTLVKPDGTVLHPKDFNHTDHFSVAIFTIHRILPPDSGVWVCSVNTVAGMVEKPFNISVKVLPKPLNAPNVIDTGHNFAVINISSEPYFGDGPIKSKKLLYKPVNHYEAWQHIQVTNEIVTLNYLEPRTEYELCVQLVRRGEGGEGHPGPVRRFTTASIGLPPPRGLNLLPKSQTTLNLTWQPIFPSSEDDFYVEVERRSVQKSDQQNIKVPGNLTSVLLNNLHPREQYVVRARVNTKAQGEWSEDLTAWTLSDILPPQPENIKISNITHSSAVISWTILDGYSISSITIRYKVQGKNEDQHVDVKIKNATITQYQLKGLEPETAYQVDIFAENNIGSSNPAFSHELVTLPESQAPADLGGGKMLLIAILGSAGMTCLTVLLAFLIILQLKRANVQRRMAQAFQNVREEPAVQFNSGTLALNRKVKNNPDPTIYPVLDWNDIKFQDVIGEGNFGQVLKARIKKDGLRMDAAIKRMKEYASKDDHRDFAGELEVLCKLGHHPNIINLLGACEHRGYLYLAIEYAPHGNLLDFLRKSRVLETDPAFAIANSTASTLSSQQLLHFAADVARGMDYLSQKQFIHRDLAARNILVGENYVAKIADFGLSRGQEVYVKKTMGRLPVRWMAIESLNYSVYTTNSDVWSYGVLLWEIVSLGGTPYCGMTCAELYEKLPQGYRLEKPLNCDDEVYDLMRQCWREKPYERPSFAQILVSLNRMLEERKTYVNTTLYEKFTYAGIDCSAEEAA
For assay [8], the target named is Cyclin-dependent kinase 1 (Homo sapiens, UniProt P06493). The assay can be described thus: In vitro inhibition of Cyclin-dependent kinase 1 (CDK-1) expressed in baculovirus.
Sequence of Cyclin-dependent kinase 1 (P06493 whole entry): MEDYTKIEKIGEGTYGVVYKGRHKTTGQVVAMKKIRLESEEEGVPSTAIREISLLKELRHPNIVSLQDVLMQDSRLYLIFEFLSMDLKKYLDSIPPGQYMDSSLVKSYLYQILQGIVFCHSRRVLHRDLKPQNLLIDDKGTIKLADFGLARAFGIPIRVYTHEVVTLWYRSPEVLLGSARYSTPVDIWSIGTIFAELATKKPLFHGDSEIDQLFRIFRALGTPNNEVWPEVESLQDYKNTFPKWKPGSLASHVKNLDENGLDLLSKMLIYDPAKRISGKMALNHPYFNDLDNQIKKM
Assay [9] is described as follows: Mean % inhibition of induced angiogenesis by Vascular endothelial growth factor (VEGF) after intraperitoneal dose of 100 mg/kg in mice. In kind it is functional. As to conditions: Mus musculus, ip.
Assay [10] addresses Vascular endothelial growth factor receptor 3 (Homo sapiens, UniProt P35916). The assay can be described thus: In vitro inhibition of Vascular endothelial growth factor receptor 3 [VEGFR-3(Flt-4)] expressed in baculovirus.
For assay [11], the target named is Mast/stem cell growth factor receptor Kit (Homo sapiens, UniProt P10721).
Assay [12] concerns the target Hepatocyte growth factor receptor (Homo sapiens, UniProt P08581). The assay can be described thus: In vitro inhibition of Met proto-oncogene tyrosine kinase (c-Met) expressed in baculovirus.
For assay [13], the species on record is Mus musculus.
The species entered for assay [14] is Mus musculus. This is another data set of the same source.
The target in assay [15] is T1, Vascular endothelial growth factor receptor 2 (Homo sapiens, UniProt P35968).
Assay [16] has as its target Proto-oncogene tyrosine-protein kinase Src (Homo sapiens, UniProt P12931).
The target in assay [17] is Vascular endothelial growth factor receptor 1 (Homo sapiens, UniProt P17948).
Assay [18] concerns the target Fibroblast growth factor receptor 1 (Homo sapiens, UniProt P11362).
Assay [19] is filed under the species Mus musculus. This is another data set of the same source.
Assay [20] concerns the target Tyrosine-protein kinase ABL1 (Homo sapiens, UniProt P00519).
Assay [21] deals with Platelet-derived growth factor receptor beta (Homo sapiens, UniProt P09619).
The target in assay [22] is Macrophage colony-stimulating factor 1 receptor (Homo sapiens, UniProt P07333).
Sequence of Macrophage colony-stimulating factor 1 receptor (P07333 whole entry): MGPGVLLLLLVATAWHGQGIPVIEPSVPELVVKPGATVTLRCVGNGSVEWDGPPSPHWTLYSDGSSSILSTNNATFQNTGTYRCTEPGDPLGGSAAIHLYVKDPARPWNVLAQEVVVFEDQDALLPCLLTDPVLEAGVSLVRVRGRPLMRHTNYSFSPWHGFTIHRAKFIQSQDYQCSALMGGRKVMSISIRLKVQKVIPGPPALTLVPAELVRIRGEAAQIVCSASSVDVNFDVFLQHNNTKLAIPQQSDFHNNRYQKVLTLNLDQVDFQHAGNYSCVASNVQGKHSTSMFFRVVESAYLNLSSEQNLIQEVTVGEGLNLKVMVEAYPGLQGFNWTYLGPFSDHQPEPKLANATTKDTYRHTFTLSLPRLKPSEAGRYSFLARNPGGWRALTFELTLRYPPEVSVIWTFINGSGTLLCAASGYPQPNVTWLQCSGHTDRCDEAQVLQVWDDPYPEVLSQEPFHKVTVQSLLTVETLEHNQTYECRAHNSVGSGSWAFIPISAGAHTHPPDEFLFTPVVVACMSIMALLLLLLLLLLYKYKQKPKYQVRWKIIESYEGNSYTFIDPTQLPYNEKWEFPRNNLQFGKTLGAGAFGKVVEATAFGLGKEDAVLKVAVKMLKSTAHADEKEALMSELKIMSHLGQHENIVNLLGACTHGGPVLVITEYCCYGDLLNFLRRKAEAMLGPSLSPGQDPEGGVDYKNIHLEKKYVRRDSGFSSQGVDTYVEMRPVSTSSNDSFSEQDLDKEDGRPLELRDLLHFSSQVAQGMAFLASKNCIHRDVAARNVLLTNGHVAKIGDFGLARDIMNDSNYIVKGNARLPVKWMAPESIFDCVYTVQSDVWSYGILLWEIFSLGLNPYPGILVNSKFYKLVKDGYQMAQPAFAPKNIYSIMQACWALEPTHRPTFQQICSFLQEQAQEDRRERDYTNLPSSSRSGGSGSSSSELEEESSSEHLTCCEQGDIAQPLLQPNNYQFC
Assay [23] has as its target T1, Vascular endothelial growth factor receptor 2. This is another data set of the same source.
The species entered for assay [24] is Mus musculus. This is another data set of the same source.

Sequence of Vascular endothelial growth factor receptor 3 (P35916 whole entry): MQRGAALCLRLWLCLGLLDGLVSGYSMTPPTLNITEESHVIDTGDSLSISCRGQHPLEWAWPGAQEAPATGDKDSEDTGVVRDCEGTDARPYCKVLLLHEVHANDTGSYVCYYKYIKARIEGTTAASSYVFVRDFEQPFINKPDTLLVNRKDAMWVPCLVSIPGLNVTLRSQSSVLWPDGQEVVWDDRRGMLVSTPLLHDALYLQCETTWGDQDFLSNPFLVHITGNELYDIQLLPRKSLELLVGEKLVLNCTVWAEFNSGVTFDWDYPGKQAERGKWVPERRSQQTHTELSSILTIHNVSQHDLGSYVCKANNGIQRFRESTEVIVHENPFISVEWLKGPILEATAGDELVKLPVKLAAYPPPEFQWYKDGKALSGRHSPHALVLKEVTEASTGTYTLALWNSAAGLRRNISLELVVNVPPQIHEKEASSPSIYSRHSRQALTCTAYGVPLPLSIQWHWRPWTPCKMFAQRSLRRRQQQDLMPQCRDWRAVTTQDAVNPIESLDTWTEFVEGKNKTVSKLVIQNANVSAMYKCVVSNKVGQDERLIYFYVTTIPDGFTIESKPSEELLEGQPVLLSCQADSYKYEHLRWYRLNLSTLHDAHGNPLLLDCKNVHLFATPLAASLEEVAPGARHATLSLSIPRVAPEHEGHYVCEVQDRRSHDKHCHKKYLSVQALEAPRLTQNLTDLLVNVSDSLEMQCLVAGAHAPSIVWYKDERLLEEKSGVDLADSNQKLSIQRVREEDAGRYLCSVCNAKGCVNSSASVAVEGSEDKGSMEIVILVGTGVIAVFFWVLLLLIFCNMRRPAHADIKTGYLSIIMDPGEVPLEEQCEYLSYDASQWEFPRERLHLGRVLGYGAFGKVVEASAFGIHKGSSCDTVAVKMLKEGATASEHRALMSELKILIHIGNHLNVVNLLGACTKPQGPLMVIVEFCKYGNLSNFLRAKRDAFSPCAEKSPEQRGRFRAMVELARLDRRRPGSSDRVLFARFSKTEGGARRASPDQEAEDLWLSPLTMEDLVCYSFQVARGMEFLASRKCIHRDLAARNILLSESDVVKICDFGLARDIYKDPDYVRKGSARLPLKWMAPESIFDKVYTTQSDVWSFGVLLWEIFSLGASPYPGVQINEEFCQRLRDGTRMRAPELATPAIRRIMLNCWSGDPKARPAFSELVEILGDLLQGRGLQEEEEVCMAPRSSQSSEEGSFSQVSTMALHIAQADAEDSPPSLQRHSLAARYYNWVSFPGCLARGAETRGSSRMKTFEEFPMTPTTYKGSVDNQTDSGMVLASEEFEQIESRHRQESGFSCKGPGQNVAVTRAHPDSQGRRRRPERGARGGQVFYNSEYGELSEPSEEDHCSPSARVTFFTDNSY

By Inhibition is commonly meant how much of the control response was suppressed. Read a high Inhibition as a strong effect. A word on the inhibition in vivo: it is how much of the control response was suppressed. Lower therefore signals a response near the control. `Clc1ccc(Nc2nnc(Cc3ccncc3)c3ccccc23)cc1.O=C(O)CCC(=O)O`: the Inhibition is 55% in assay [1] and 34% in [3]. In assay [2], 50 mg/kg produced 68% inhibition in vivo.
Turning to `COc1cc2/c(=N/c3ccc(Br)cc3F)nc[nH]c2cc1OCC1CCN(C)CC1` [VANDETANIB], at 50 mg/kg the inhibition in vivo in [2] was 71%. For the same compound, the Inhibition in assay [3] turned out to be 60%; in [4] it was 61%.
As usually defined, the IC50 is the concentration that gives 50% inhibition. As usually defined, the inhibition is the change of the read-out against control, counted positive when it falls. Read a high inhibition as strong suppression. As to `Cc1cc(C)c(/C=C2\C(=O)Nc3ccccc32)[nH]1` [SEMAXANIB], the half-maximal inhibitory concentration (IC50) was more than 10000 nM in assay [5], more than 10000 nM in assay [7], more than 10000 nM in [8] and 50 nM in assay [10]. This compound returned an inhibition in [6] of 87%. Moreover, in [9], 100 mg/kg produced 65% inhibition in vivo.
As for `O=C(Nc1cccc(-c2cncc3ccccc23)c1)c1ccccc1NCc1ccncc1`, the IC50 is 105 nM in assay [11]; more than 10000 nM in assay [12]; 6400 nM in [5]; 9 nM in assay [15]; more than 10000 nM in assay [16]; 6800 nM in [7]. The half-maximal inhibitory concentration (IC50) in [17] is 130 nM; in [18] it was 5100 nM; in assay [20] it was 5330 nM; in [21] it was 357 nM; in [8], more than 10000 nM; in [22], 99 nM. Besides, the IC50 in assay [23] was found to be 1.16 nM; in [10] it was 52 nM. Also, the Plasma concentration in assay [13] stood at 1.6 µM l-1; in assay [14] it was 1.9 µM l-1; in assay [19], 1.9 µM l-1; in assay [24] it was 3.4 µM l-1. Moreover, the inhibition in vivo at 50 mg/kg in assay [2] came out at 100%. The Inhibition in [3] is 39% and 73%.
Take `O=C(Nc1cccc(C(F)(F)F)c1)c1ccccc1NCc1ccncc1`: the IC50 in assay [11] is 236 nM; in assay [12], more than 10000 nM; in [5], more than 10000 nM; in assay [16], more than 10000 nM; in assay [7], more than 10000 nM; in [18], more than 10000 nM. Besides, the IC50 in assay [20] is 2820 nM; in assay [8] it was more than 10000 nM; in assay [22], 380 nM. The figures for the Inhibition in [1] and in assay [3] were 85% and 44%, respectively. In assay [2], this compound registered an inhibition in vivo at 50 mg/kg of 84%.
